Experimental data taken from patent US20090023735A1, “Sulphonamide Derivatives” (priority 2005, published 2009).
Where a name gives a salt, the structure may show the parent alone.

Tests used:
α2β1 integrin = molecular target: T1, α2β1 integrin (Homo sapiens, UniProt P17301); test: CHO-α2β1 cell adhesion on type I collagen; type: cell-based; settings: CHO cells expressing wild type α2 integrin on collagen type I coated wells, 2 h
T1 construct: expressed in transfected cells; host or cells: CHO cell clone
T1 sequence (P17301 30-1181): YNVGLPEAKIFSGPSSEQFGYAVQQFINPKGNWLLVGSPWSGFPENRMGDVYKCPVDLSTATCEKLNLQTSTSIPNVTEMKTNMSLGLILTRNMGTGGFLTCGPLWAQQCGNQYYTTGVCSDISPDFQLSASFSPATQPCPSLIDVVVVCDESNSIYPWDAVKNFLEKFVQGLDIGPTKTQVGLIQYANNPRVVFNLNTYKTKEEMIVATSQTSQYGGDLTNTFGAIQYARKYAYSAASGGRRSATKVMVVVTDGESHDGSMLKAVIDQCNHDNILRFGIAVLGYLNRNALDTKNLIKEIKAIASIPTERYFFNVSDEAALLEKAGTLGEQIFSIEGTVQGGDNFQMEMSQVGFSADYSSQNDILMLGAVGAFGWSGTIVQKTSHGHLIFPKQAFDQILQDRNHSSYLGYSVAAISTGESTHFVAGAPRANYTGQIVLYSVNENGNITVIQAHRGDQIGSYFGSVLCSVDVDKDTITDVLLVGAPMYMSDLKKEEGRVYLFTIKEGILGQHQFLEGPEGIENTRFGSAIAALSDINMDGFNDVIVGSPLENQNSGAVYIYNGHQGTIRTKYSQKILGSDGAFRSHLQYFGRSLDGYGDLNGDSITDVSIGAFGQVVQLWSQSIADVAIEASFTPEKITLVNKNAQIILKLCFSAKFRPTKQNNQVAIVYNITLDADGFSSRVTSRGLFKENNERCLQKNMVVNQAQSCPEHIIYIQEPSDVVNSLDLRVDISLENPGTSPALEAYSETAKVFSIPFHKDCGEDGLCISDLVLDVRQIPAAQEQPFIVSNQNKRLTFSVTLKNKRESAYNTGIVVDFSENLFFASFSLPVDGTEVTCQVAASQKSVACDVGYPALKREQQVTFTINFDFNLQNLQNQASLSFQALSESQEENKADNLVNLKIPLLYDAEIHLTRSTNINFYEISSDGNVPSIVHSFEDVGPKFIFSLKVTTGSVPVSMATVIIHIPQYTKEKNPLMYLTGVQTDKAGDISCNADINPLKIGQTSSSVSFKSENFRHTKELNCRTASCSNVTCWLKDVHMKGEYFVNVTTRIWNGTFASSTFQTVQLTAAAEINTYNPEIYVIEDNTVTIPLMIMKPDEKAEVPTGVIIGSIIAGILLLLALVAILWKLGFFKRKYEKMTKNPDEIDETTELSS
Protocol: Chinese Hamster Ovary (CHO) cell clone expressing wild type α2 integrin was used in cell adhesion assay. Cells were suspended in serum free medium containing 0.1 mg/ml cycloheximide (Sigma) and the compounds were preincubated with the cells prior to transfer to the wells. Cells (150000/well) were allowed to attach on collagen type I coated wells (in the presence and absence of inhibitor compounds) for 2 h at +37° C. and after that non-adherent cells were removed. Fresh serum free medium was added and the living cells were detected using a cell viability kit (Roche) according to the manufacturer's protocol.

[1] = tested on: Prostate cancer cells (PC-3); test: Cell invasion assay: invasion of PC-3 cells through Matrigel; settings: Homo sapiens, PC-3, 72 h, read-out: EC50 in cell invasion (μM)
Protocol: Prostate cancer cells (PC-3) expressing α2β1 endogenously were used to test the in vitro anticancer potential of the inhibitors of the present invention.
Inserts were stored at −20° C. Before the experiments inserts were allowed to adjust to the room temperature. 500 μl of serum free media (Ham's F12K medium, 2 mM L-glutamine, 1.5 g/l sodium bicarbonate) was added into the inserts and allowed to rehydrate at 37° C. in cell incubator for two hours. The remaining media was aspirated. PC-3 cells were detached, pelleted and suspended into serum free media (50000 cells/500 μl). 300 μl of cell suspension was added into the insert in the absence (control) or presence of the inhibitor according to the present invention. Inserts were placed on the 24-well plates; each well containing 700 μl of cell culture media with 3% of fetal bovine serum as chemo-attractant. Cells were allowed to invade for 72 hours at 37° C. in cell incubator. Inserts were washed with 700 μl PBS, and fixed with 4% paraformaldehyde for 10 minutes. Paraformaldehyde was aspirated and cells were washed with 700 μl of PBS and inserts were stained by incubation with hematoxylin for 1 minute. The stain was removed by washing the inserts with 700 μl of PBS. Inserts were allowed to dry. Fixed invaded cells were calculated under the microscope. Invasion % was calculated as a comparison to the control.

[2] = tested on: platelet aggregation in whole blood; settings: PFA-100, collagen plus Epinephrin membrane, compared to control (DMSO), FIG. 1
Protocol: The PFA-100 is a high shear-inducing device that simulates primary haemostasis after injury of a small vessel. The system comprises a test-cartridge containing a biologically active membrane coated with collagen plus Epinephrin. An anticoaculated whole blood sample was run through a capillary under a constant vacuum. […] The time required to obtain full occlusion of the aperture was designated as the “closure time”. Each compound was added to the whole blood sample and the closure time was measured with PFA-100.
Blood was collected from a donor via venipuncture into evacuated blood collection tubes containing 3.2% buffered sodium sitrate as anticoagulant. Blood was aliquoted into 15 mL tubes and treated with either inhibitory compounds or controls (DMSO). Samples were kept at room temperature with rotation for 10 minutes and after that the closure time of the blood was measured.
Acquisitions resulting in a closure time exceeding the range of measurement of the instrument (>300 seconds) were assigned a value of 300 seconds. Mean and standard deviations were calculated for each treatment. Student's t-test was applied to the resultant data.

Compound	inhibition at 50 µM (α2β1 integrin) [%]	also measured
COCCN(c1ccc(N(C)C)cc1)S(=O)(=O)c1cccc(-c2ccc(F)cc2)c1 [Compound 353, 4′-fluoro-biphenyl-3-sulfonic acid (4-dimethylamino-phenyl)-(2-methoxy-ethyl)-amide]	11	–
CN(c1ccc(NC(=O)N2CCNC2=O)cc1)S(=O)(=O)c1cccc(-c2ccc(F)cc2)c1 [Compound 430, 2-oxo-imidazolidine-1-carboxylic acid {4-[(4′-fluoro-bi-phenyl-3-sulfonyl)-methyl-amino]-phenyl)-amide]	53	EC50 [1]: 12 µM
CC(=O)c1ccc(NS(=O)(=O)c2cccc(-c3ccc(F)cc3)c2)cc1 [Compound 383, 4′-fluoro-biphenyl-3-sulfonic acid (4-acetyl-phenyl)-amide]	26	–
O=[N+]([O-])c1ccc(NS(=O)(=O)c2cccc(-c3ccc(F)cc3)c2)cc1 [Compound 440, 4′-fluoro-biphenyl-3-sulfonic acid (4-nitro-phenyl)-amide]	59	EC50 [1]: 8.3 µM
O=C(c1ccccc1)c1cccc(NS(=O)(=O)c2cccc(-c3ccc(F)cc3)c2)c1 [Compound 432, 4′-fluoro-biphenyl-3-sulfonic acid (3-benzoyl-phenyl)-amide]	72	EC50 [1]: 1 µM
N#Cc1ccc(NS(=O)(=O)c2cccc(-c3ccc(F)cc3)c2)cc1 [Compound 448, 4′-fluoro-biphenyl-3-sulfonic acid (4-cyano-phenyl)-amide]	58	EC50 [1]: 27 µM
Cn1cccc1C(=O)Nc1ccc(NS(=O)(=O)c2cccc(-c3ccc(F)cc3)c2)cc1 [Compound 442, 1-methyl-1H-pyrrole-2-carboxylic acid [4-(4′-fluoro-bi-phenyl-3-sulfonylamino)-phenyl]-amide]	21	–
O=S(=O)(Nc1cccc(-c2ccc(F)cc2)c1)c1ccc(Cl)cc1Cl [Compound 403, 2,4-cichlorophenylsulfonic acid (3-(4-fluorophenyl)phenyl)-amide]	56	–
O=S(=O)(Nc1ccc(-c2cnco2)cc1)c1cccc(-c2ccc(F)cc2)c1 [Compound 378, 4′-fluoro-biphenyl-3-sulfonic acid (4-(1,3-oxazol-5-yl)-phenyl)-amide]	22	–
O=C(c1ccccc1)c1ccc(NS(=O)(=O)c2cccc(-c3ccc(F)cc3)c2)cc1 [Compound 434, 4′-fluoro-biphenyl-3-sulfonic acid (4-benzoyl-phenyl)-amide sodium salt]	–	closure time of the blood [2]: increase the closure time; inhibition at 50 µM (α2β1 integrin; CHO): 78%
O=C(c1ccccc1)c1ccc(NS(=O)(=O)c2cccc(-c3ccc(F)cc3)c2)cc1 [Compound 384, 4′-fluoro-biphenyl-3-sulfonic acid (4-benzoyl-phenyl)-amide]	65	–
CN(C)CCN(c1ccc(N(C)C)cc1)S(=O)(=O)c1cccc(-c2ccc(F)cc2)c1 [Compound 354, 4′-fluoro-biphenyl-3-sulfonic acid (2-dimethylamino-ethyl)-(4-dimethylamino-phenyl)-amide]	78	–
CN(C)c1ccc(N(CCO)S(=O)(=O)c2cccc(-c3ccc(F)cc3)c2)cc1 [Compound 359, 4′-fluoro-biphenyl-3-sulfonic acid (4-dimethylamino-phenyl)-(2-hydroxy-ethyl)-amide]	42	–
Cc1cc(NC(=O)c2ccc(NS(=O)(=O)c3cccc(-c4ccc(F)cc4)c3)cc2)no1 [Compound 456, 4-(4′-fluoro-biphenyl-3-sulfonylamino)-N-(5-methyl-isoxazol-3-yl)-benzamide]	13	–
CN(C)c1ccc(N(CCn2ccnc2)S(=O)(=O)c2cccc(-c3ccc(F)cc3)c2)cc1 [Compound 358, 4′-fluoro-biphenyl-3-sulfonic acid (4-dimethylamino-phenyl)-(2-imidazol-1-yl-ethyl)-amide]	71	–
O=C(c1ccc(F)cc1)c1ccc(NS(=O)(=O)c2cccc(-c3ccc(F)cc3)c2)cc1 [Compound 458, 4′-fluoro-biphenyl-3-sulfonic acid [4-((4-fluorophenyl)-4-carbonyl)-phenyl]-amide]	66	–
CN(C)c1ccc(N(CCN2CCOCC2)S(=O)(=O)c2cccc(-c3ccc(F)cc3)c2)cc1 [Compound 355, 4′-fluoro-biphenyl-3-sulfonic acid (4-dimethylamino-phenyl)-(2-morpholin-4-yl-ethyl)-amide]	18	–
